One compound from patent US9493464B2, “Wee1 degradation inhibitors” (The Scripps Research Institute, priority 2012, dated 2016) can be followed below.

Test [1] deals with endogenous Wee1. Put plainly: Western blot of endogenous Wee1. Format: cell-based. The settings on record: result in words. How it is done: (§1) The percentage of signal relative to the proteasome inhibitor MG132 is shown. […] A Western blot is shown of endogenous Wee1 or Skp1 (loading control) of HeLa cells incubated with 5 μM of indicated compounds for 24 hours. […] The 0 time point was set to 100%. […] The extent of degradation was measured as in FIG. D.
(Immunoblotting shows a protein as a band on a membrane.)

Test [2] has as its system cyclin dependent kinases. Nature of the test: Kinase activity, cyclin dependent kinases. The settings on record: result in words. Format: biochemical. The text has this: CNS neurogenesis requires Cdk1 activity regulated by the phosphatase Cdc25 and the tyrosine kinase Wee1[1]. Cdk1 activity decreases in normal adult neurons and is reactivated in neurological diseases such as Alzheimer's[2]. A major mechanism controlling Cdk1 activity in neurons is Wee1 degradation via the ubiquitin proteasome pathway. It was sought to identify pathways controlling neuronal Wee1 degradation using cerebellar granule cells and a reporter of Wee1 turnover, K328M-Wee1-Luciferase[4].

The subject of test [3] is K328M-Wee1-luciferase. Nature of the test: K328M-Wee1-luciferase degradation with cycloheximide. Format: cell-based. Particulars: HeLa cells, 5 μM, result in words. How it is done:
as §1

In test [4] the test system is Luciferase. Nature of the test: Luciferase alone control (PGL3 vector). The test is classed as cell-based. The settings on record: HeLa cells, cycloheximide, 5 μM; result in words. As for the experimental part: as §1
5 μM of indicated compounds were incubated with K328M-Wee1-Luciferase or Luciferase expressing HeLa cells and the extent of stabilization measured after adding Brite-lite. MG132 was used as a positive control.
Similar assays have previously been described; PubChem AID 1807.

Test [5] deals with 296 kinases. Nature of the test: Kinase profile of 296 kinases (Reaction Biology Corporation). The test is classed as biochemical. The settings on record: result in words.
Test [6] addresses T1, CK1ε (Homo sapiens, UniProt P49674).
T1 construct: Reaction Biology Corporation (contract assay)
Put plainly: In vitro kinase assay, CK1ε (Reaction Biology Corporation). The test is classed as biochemical. Particulars: 10 μM ATP. How it is done:
Compounds were tested in 10-dose IC50 mode with 3-fold serial dilution starting at 50 μM. […] Reactions were carried out at 10 μM ATP. Average and standard deviations of reactions carried out in triplicate are shown.
In vitro kinase assay to detect CK1 or FLT3 activity: CK1 and FLT3 assays as well as complete kinase profile of 296 kinases was performed by Reaction Biology Corporation. For FLT3 20 μM final Abltide was used, sequence: [[…]]. For CK1 (all isoforms) 20 μM CK1 tide was used, sequence: [KRRRAL[pS]VASLPGL] in a standard kinase assay with ^32P-ATP and purified kinase. Incorporation of ^32P-ATP into the peptide was measured after a filter-binding assay. In-house CK1d inhibition assays were performed using a standard homogenous time-resolved fluorescence resonance energy transfer (TR-FRET) format in 50 mM Hepes, pH 7.0, 2.5 mM MgCl2, 0.1 mg/ml bovine serum albumin, 1 mM DL-dithiothreitol, 0.01% Triton X-100 (all from Sigma-Aldrich). […] Assays were performed in the presence of 2 μL of compound at different (measured) concentrations, and reactions were stopped by adding 10 μL of 4 nM Eu-anti-p-Topo-IIa (PerkinElmer) in Lance Detection Buffer (Perkin Elmer). Upon excitation of the Eu-labeled antibody, energy is transferred to the acceptor dye resulting in the emission of detected light at 665 nm.

pIC50: −log10 of the molar value. “Also recorded” adds a separate entry of the source.

T1 sequence (P49674 whole entry): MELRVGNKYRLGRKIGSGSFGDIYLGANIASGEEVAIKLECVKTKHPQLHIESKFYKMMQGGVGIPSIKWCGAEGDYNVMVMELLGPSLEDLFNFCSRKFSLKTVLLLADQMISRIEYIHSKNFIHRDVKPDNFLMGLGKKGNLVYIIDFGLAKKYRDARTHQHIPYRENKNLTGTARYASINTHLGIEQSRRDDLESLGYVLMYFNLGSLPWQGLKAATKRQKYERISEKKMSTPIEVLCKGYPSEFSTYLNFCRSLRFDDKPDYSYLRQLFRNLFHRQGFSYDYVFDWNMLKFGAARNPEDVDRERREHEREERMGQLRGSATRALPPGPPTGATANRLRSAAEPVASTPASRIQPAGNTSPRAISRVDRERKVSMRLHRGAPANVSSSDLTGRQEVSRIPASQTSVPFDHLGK

What is called pIC50 is −log10 of the IC50, conventionally taken in molar units. Higher therefore signals a small IC50. Consider `c1ccc2[nH]c(CNc3nc(N4CCOCC4)nc4c3ncn4-c3ccsc3)nc2c1` [SR-653234], for which the “steady-state levels of endogenous Wee1” value in test [1] is “increased the steady-state levels of endogenous Wee1”. In addition, in test [2], the “activity toward cyclin dependent kinases” value is reported as “does not show any appreciable activity”. The K328M-Wee1-luciferase degradation entry in test [3] is “inhibited degradation of K328M-Wee1-luciferase; also recorded: inhibits K328M-Wee1-luciferase degradation”. For the same compound, in test [4], the luciferase degradation entry is “does not affect luciferase degradation”. The “selectivity among 296 kinases” value in test [5] is “highly selective for casein kinase”. The same compound gave a negative logarithm of the IC50 (pIC50) in test [6] of 7.00.
